This note sets out measurements from patent publication US12103920B2, “Cereblon binding compounds, compositions thereof, and methods of treatment therewith” (Celgene Corporation, priority 2020, dated 2024).

Structures can show the parent of a compound that is named as a salt. A value given as a limit tells only on which side of the number the result lay.

This experiment has as its target T1, AR protein in VCaP cells (Homo sapiens, UniProt P10275).
T1 construct: endogenous in cells; host or cells: VCaP cells
T1 sequence (P10275 1-920): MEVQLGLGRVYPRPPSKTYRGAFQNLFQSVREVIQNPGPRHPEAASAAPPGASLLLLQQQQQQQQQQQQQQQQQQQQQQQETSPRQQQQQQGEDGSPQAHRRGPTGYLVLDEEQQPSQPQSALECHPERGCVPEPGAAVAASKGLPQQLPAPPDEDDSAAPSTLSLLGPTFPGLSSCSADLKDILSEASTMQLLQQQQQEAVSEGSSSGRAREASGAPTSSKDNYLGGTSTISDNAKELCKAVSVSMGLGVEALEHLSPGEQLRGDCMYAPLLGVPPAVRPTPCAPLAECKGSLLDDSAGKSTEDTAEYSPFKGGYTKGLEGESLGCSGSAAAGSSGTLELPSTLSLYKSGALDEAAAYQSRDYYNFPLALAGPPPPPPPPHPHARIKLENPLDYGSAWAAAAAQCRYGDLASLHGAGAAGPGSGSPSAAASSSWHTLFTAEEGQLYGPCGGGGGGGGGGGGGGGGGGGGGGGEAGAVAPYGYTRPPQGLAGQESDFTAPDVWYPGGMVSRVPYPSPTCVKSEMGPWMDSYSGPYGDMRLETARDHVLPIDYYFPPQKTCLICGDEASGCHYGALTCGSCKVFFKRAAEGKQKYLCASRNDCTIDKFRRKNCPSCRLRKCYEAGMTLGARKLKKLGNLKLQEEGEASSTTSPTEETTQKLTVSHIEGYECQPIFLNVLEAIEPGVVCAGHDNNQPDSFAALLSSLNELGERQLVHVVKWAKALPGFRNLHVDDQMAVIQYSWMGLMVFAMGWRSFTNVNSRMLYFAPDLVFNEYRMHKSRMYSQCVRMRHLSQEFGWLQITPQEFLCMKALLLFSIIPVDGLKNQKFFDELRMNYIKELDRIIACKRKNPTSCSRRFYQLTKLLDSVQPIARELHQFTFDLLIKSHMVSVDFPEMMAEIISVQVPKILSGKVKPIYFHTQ
Briefly: VCAP AR Degradation Assay. Type of experiment: cell-based. The settings on record: 24 h, AR ELISA; for DC50: concentration at 50% of DMSO control (50% AR degradation); for Y: lowest measured AR level normalized to DMSO control. The procedure: VCAP AR Degradation Assay. Test compounds were pre-dispensed into a Corning CellBind 96-well clear bottom plate (Cat #3300) using an acoustic dispenser to make a 10-point concentration series at 1:3 dilution for each compound. The final top concentration of each compound was 5 μM. DMSO at a final concentration of 0.1% was used as a control. VCaP cells cultured in DMEM with 8% fetal bovine serum (FBS) were seeded at 50K cells per well in a 200 μL volume into the compound plate and incubated at 37° C. in a CO2 incubator for 24 h. The medium was carefully removed from the cells and the plate was placed on ice. One hundred μL of ice-cold 1× cell lysis buffer from Cell Signaling Technologies (Cat #9803) was added to each well of the cells and the plate was incubated at 4° C. on a shaker for 1 h. Fifteen μL of cell lysate was used for AR ELISA detection using a PathScan Total Sandwich AR ELISA kit (Cell Signaling Technology, Cat #12580). AR levels in compound-treated wells were normalized to that of DMSO control and expressed as percent of control (PoC) (y). A Four Parameter Logistic Model (Sigmoidal Dose-Response Model) was used to determine the compound's DC50, and EC50, using the following equation: y=(A+((B−A)/(1+((C/x)^D)))) • A=YMin (lowest AR level normalized to DMSO control in response to compound treatment, as determined by curve fit) • B=YMax (maximum AR level as determined by curve fit) • C=EC50 • D=Hill Slope • x=compound concentration • EC50=the concentration of compound when y=(YMax−YMin)/2 • DC50=the concentration of the compound when y=50% of DMSO control (50% AR degradation) • y=AR protein level normalized to DMSO control
The lowest measured AR level normalized to DMSO control in response to compound treatment, termed Y value, was used to characterize the compound-mediated AR degradation efficiency.
(An ELISA detects its analyte on a solid surface through an enzyme-linked reagent.)

Turning to `C[C@@H]1CN(CCC[C@H]2CC[C@H](N3C(=S)N(c4cnc(C#N)c(C(F)(F)F)c4)C(=O)C3(C)C)CC2)C[C@H](C)N1CC(=O)Nc1cccc(NC2CCC(=O)NC2=O)c1` (stereo partly drawn) [Cmpd 11, 2-((2R,6S)-4-(3-(trans-4-(3-(6-Cyano-5-(trifluoromethyl)pyridin-3-yl)-5,5-dimethyl-4-oxo-2-thioxoimidazolidin-1-yl)cyclohexyl)propyl)-2,6-dimethylpiperazin-1-yl)-N-(3-((2,6-dioxopiperidin-3-yl)amino)phenyl)acetamide hydrochloride], the DC50 (in general, the concentration at which degradation of the target reaches its halfway point) is no more than 0.005 µM and the Y result is reported as “* (0<Y≤15%)”.

Take `CC1(C)C(=O)N(c2ccc(C#N)c(C(F)(F)F)c2)C(=S)N1[C@H]1CC[C@H](CCCN2CCN(CC(=O)Nc3cccc(NC4CCC(=O)NC4=O)c3)[C@@H](C(F)(F)F)C2)CC1` (stereo partly drawn) [Cmpd 29, 2-((R)-4-(3-((trans)-4-(3-(4-Cyano-3-(trifluoromethyl)phenyl)-5,5-dimethyl-4-oxo-2-thioxoimidazolidin-1-yl)cyclohexyl)propyl)-2-(trifluoromethyl)piperazin-1-yl)-N-(3-((2,6-dioxopiperidin-3-yl)amino)phenyl)acetamide]: the DC50 fell in the range of 0.005 to 0.01 µM and the Y entry is reported as “* (0<Y≤15%)”.

In the case of `CC1(C)C(=O)N(c2ccc(C#N)c(C(F)(F)F)c2)C(=S)N1[C@H]1CC[C@H](OCCN2CCN(CC(=O)Nc3cccc(NC4CCC(=O)NC4=O)c3)[C@H](C(F)(F)F)C2)CC1` (stereo partly drawn) [Cmpd 40, 2-((S)-4-(2-(((trans)-4-(3-(4-Cyano-3-(trifluoromethyl)phenyl)-5,5-dimethyl-4-oxo-2-thioxoimidazolidin-1-yl)cyclohexyl)oxy)ethyl)-2-(trifluoromethyl)piperazin-1-yl)-N-(3-((2,6-dioxopiperidin-3-yl)amino)phenyl)acetamide], the DC50 lay within 0.01 to 0.1 µM and the Y result is given as “*** (25%<Y<50%)”.

On to `C[C@@H]1C[C@H](OCCC[C@H]2CC[C@H](N3C(=S)N(c4ccc(C#N)c(C(F)(F)F)c4)C(=O)C3(C)C)CC2)C[C@H](C)N1CC(=O)Nc1cccc(NC2CCC(=O)NC2=O)c1` (stereo partly drawn) [Cmpd 32, 2-((2R,4r,6S)-4-(3-((trans)-4-(3-(4-Cyano-3-(trifluoromethyl)phenyl)-5,5-dimethyl-4-oxo-2-thioxoimidazolidin-1-yl)cyclohexyl)propoxy)-2,6-dimethylpiperidin-1-yl)-N-(3-((2,6-dioxopiperidin-3-yl)amino)phenyl)acetamide], for which the DC50 lay in the range of 0.01 to 0.1 µM and the Y entry is “** (15%<Y≤20%)”.

For `C[C@@H]1CN(CCC[C@H]2CC[C@H](N3C(=S)N(c4ccc(C#N)c(C(F)(F)F)c4)C(=O)C3(C)C)CC2)C[C@H](C)N1CC(=O)Nc1cccc(N[C@H]2CCC(=O)NC2=O)c1` [Cmpd 18, 2-((2R,6S)-4-(3-(trans-4-(3-(4-Cyano-3-(trifluoromethyl)phenyl)-5,5-dimethyl-4-oxo-2-thioxoimidazolidin-1-yl)cyclohexyl)propyl)-2,6-dimethylpiperazin-1-yl)-N-(3-(((S)-2,6-dioxopiperidin-3-yl)amino)phenyl)acetamide], the DC50 is 0.01 to 0.1 µM and the Y entry is reported as “** (15%<Y≤20%)”.

As for `C[C@@H]1CN(CCO[C@H]2CC[C@H](N3C(=S)N(c4cnc(C#N)c(C(F)(F)F)c4)C(=O)C3(C)C)CC2)C[C@H](C)N1CC(=O)Nc1cccc(NC2CCC(=O)NC2=O)c1` (stereo partly drawn) [Cmpd 5, 2-((2R,6S)-4-(2-((trans-4-(3-(6-Cyano-5-(trifluoromethyl)pyridin-3-yl)-5,5-dimethyl-4-oxo-2-thioxoimidazolidin-1-yl)cyclohexyl)oxy)ethyl)-2,6-dimethylpiperazin-1-yl)-N-(3-((2,6-dioxopiperidin-3-yl)amino)phenyl)acetamide hydrochloride], the 50% degradation concentration (DC50) is no more than 0.005 µM and the Y result was “*** (25%<Y<50%)”.

As for `C[C@@H]1C[C@H](OCCC[C@H]2CC[C@H](N3C(=S)N(c4cnc(C#N)c(C(F)(F)F)c4)C(=O)C3(C)C)CC2)C[C@H](C)N1CC(=O)Nc1cccc(NC2CCC(=O)NC2=O)c1` (stereo partly drawn) [Cmpd 33, 2-((2R,4r,6S)-4-(3-((trans)-4-(3-(6-Cyano-5-(trifluoromethyl)pyridin-3-yl)-5,5-dimethyl-4-oxo-2-thioxoimidazolidin-1-yl)cyclohexyl)propoxy)-2,6-dimethylpiperidin-1-yl)-N-(3-((2,6-dioxopiperidin-3-yl)amino)phenyl)acetamide hydrochloride], the DC50 lay in the range of 0.005 to 0.01 µM and the Y result is given as “** (15%<Y≤20%)”.

For the molecule `C[C@@H]1C[C@H](OCC[C@H]2CC[C@H](N3C(=S)N(c4ccc(C#N)c(C(F)(F)F)c4)C(=O)C3(C)C)CC2)C[C@H](C)N1CC(=O)Nc1cccc(NC2CCC(=O)NC2=O)c1` (stereo partly drawn) [Cmpd 36, 2-((2R,4r,6S)-4-(2-((trans)-4-(3-(4-Cyano-3-(trifluoromethyl)phenyl)-5,5-dimethyl-4-oxo-2-thioxoimidazolidin-1-yl)cyclohexyl)ethoxy)-2,6-dimethylpiperidin-1-yl)-N-(3-((2,6-dioxopiperidin-3-yl)amino)phenyl)acetamide], the DC50 fell in the range of 0.01 to 0.1 µM and the Y entry is recorded as “** (15%<Y≤20%)”.

In the case of `CC1(C)C(=O)N(c2ccc(C#N)c(C(F)(F)F)c2)C(=S)N1[C@H]1CC[C@H](OCCN2CCN(CC(=O)Nc3cc(C#N)cc(NC4CCC(=O)NC4=O)c3)[C@@H](C(F)(F)F)C2)CC1` (stereo partly drawn) [Cmpd 34, 2-((R)-4-(2-(((trans)-4-(3-(4-Cyano-3-(trifluoromethyl)phenyl)-5,5-dimethyl-4-oxo-2-thioxoimidazolidin-1-yl)cyclohexyl)oxy)ethyl)-2-(trifluoromethyl)piperazin-1-yl)-N-(3-cyano-5-((2,6-dioxopiperidin-3-yl)amino)phenyl)acetamide], the half-maximal degradation concentration (DC50) fell in the range of 0.005 to 0.01 µM and the Y entry is “*** (25%<Y<50%)”.

In the case of `C[C@@H]1C[C@H](OCC[C@H]2CC[C@H](N3C(=S)N(c4cnc(C#N)c(C(F)(F)F)c4)C(=O)C3(C)C)CC2)C[C@H](C)N1CC(=O)Nc1cccc(NC2CCC(=O)NC2=O)c1` (stereo partly drawn) [Cmpd 35, 2-((2R,4r,6S)-4-(2-((trans)-4-(3-(6-Cyano-5-(trifluoromethyl)pyridin-3-yl)-5,5-dimethyl-4-oxo-2-thioxoimidazolidin-1-yl)cyclohexyl)ethoxy)-2,6-dimethylpiperidin-1-yl)-N-(3-((2,6-dioxopiperidin-3-yl)amino)phenyl)acetamide hydrochloride], the DC50 was in the range of 0.01 to 0.1 µM and the Y result is listed as “* (0<Y≤15%)”.

Regarding `C[C@@H]1CN(CCC[C@H]2CC[C@H](N3C(=S)N(c4ccc(C#N)c(C(F)(F)F)c4)C(=O)C3(C)C)CC2)C[C@H](C)N1CC(=O)Nc1cc(F)cc(NC2CCC(=O)NC2=O)c1` (stereo partly drawn) [Cmpd 38, 2-((2R,6S)-4-(3-((trans)-4-(3-(4-Cyano-3-(trifluoromethyl)phenyl)-5,5-dimethyl-4-oxo-2-thioxoimidazolidin-1-yl)cyclohexyl)propyl)-2,6-dimethylpiperazin-1-yl)-N-(3-((2,6-dioxopiperidin-3-yl)amino)-5-fluorophenyl)acetamide], the DC50 lay within 0.005 to 0.01 µM and the Y entry is listed as “* (0<Y≤15%)”.
